Results taken from patent US8835410B2, “Treatment of eyelid dermatitis” (Bodor Laboratories, Inc., priority 2011, dated 2014).
“Also recorded” adds a separate entry of the source. Marks after values point to notes of the source that are not given here.

Key:
[1] = Stability of LE in aqueous suspension with or without Δ^1-cortienic acid at room temperature (HPLC); assay type: physicochemical; conditions: for k: 421 days
Procedure: To investigate the effect of Δ^1-cortienic acid (Δ^1-CA) on the stability of loteprednol etabonate (LE), the following experiments were conducted at room temperature (22.5° C.):
Inactives: Δ^1-CA, 0.1% (2.897 mM) & 0.2% (5.795 mM); Glycerin, Povidone, Tyloxapol, Edetate Disodium Dihydrate, Purified Water.
Preservative added: Benzalkonium Chloride 0.01%
• 1) To the mixture of 9.32 g glycerin (USP, 99.7%), 7.2 g Povidone (USP, 90000), 1.2 g Tyloxapol (USP), 0.08 g benzalkonium chloride (USP, […] of 50% solution), and 0.04 g Edetate Disodium Dihydrate (USP), 400 ml Purified Water (USP) was added. 2) The mixture was sonicated for 20 minutes to make a homogenous solution, and its pH was measured. 3) To 150 ml of each solution was added 0.15 g or 0.3 g of loteprednol etabonate (micronized), and the mixture was sonicated for 30 minutes to obtain two LE-only suspensions at 0.1% & 0.2%, respectively. 4) From each LE-only suspension (0.1 & 0.2%), 75 ml was taken and combined with micronized Δ^1-CA (0.075 & 0.15 g). 5) All four suspensions were mixed and sonicated again for another 30 minutes, and the pH of each was measured (Blank vehicle pH 3.4; LE only suspensions, pH 3.5; LE+Δ^1-CA suspensions, pH 3.3). 6) Each of the four suspensions was separated/pipetted (1 ml) into 8 ml amber vials (1 ml/vial) and the vials were sealed with caps and parafilm. 7) Half of each formula 1 ml/vial samples were loaded on a shaker for continuous shaking (170 times/min), and the other half of the samples were only shaken vigorously by hand each time before HPLC sample preparation. 8) For periodical samplings, one sample of every set of suspensions was taken and analyzed by HPLC. 9) All procedures were conducted at 22.5° C. Sample Preparation
The change of LE and its degradation products AE (acid etabonate) and Δ^1-CA in the suspensions was measured periodically. A vial of each series of suspensions was randomly taken, mixed/washed with 50% acetonitrile, and transferred to a 10 ml cylinder to make a final volume of 10 ml solution (about 100 μg/ml for LE 0.1% or 200 μg/ml for LE 0.2% samples).
A HPLC system operating at ambient temperature was used to quantitative determination of LE, AE and Δ^1-CA. Phenonemax Luna C18 (5μ, 150×4.6 mm) was connected to a Spectra-Physics component system consisting of a SP 8810 precision isocratic pump, a Rheodyne 7125 injector (injection volume 20 μl), a SP 8450 UV/VIS variable wavelength detector (operated at 254 nm), and a SP 4290 integrator. At a flow rate of 1 ml/min, a mobile phase consisting of acetonitrile, acetic acid, and water in a volume ratio of 60:0.2:40 eluted LE, AE and Δ^1-CA at 7.5, 3.2, and 2.2 min, respectively. Each sample was run in triplicate. The change in peak-area was recorded, and the percent ratio of each compound (LE, AE, and Δ^1-CA) toward total (LE+AE+Δ^1-CA) in peak-area was used to evaluate the disappearance of LE as well as the appearance of AE and Δ^1-CA. Since Δ^1-CA was used as an additive for LE+Δ^1-CA samples, the appearance of Δ^1-CA (from AE) was in the error range of these samples, and furthermore, in the LE-only samples, Δ^1-CA was observed from zero-time at 0.36±0.19% of total (LE+AE+Δ^1-CA), and less than, or about 0.5% thereafter in all LE-only samples; the number 0.5% was used as the amount of Δ^1-CA for all of LE+Δ^1-CA samples.

Sprague-Dawley rats = test: Effect of steroid ointments on skin atrophy and thymus weight in rats; assay type: in vivo, rat; conditions: for PERCENT DECREASE IN SKIN THICKNESS / PERCENT DECREASE IN THYMUS WEIGHT: ointment on shaved dorsal skin, vs controls; for effect on thymus weight (in words) / skin atrophy (in words): topical ointment
Procedure: To investigate the effects of loteprednol etabonate (LE) on skin atrophy and thymus weight, the following experiments were conducted: Loteprednol etabonate (LE) and betamethasone valerate (BMV) were formulated by Otsuka Pharmaceuticals at a concentation of 0.1% in a white petrolatum base containing 5% propylene carbonate. All other test materials were steroidal anti-inflammatory compounds [Locoid® or hydrocortisone 17-butyrate (HCB) and Rinderon® or betamethasone 17-valerate (BMV-R) or white petrolatum vehicle as a control] which were commercially available in Japan at the time of testing. Sprague-Dawley rats were used in this study. All animals were from the animal research facilities of Otsuka Pharmaceutical Co. Ltd., Tokushima, Japan and all animal care and housing were according to their standard procedures. Groups of male rats (Sprague Dawley) weighing about 200-240 g were shaved on the dorsal surface. Loteprednol etabonate and betamethasone 17-valerate were administered as 0.1% ointments using white petrolatum base containing 5% propylene carbonate (PC). In separate groups, 0.12% betamethasone 17-valerate (Rinderon®), 0.1% hydrocortisone 17-butyrate (Locoid®) were administered as comparators. White petrolatum base (+5% PC) was administered to control animals. Two schedules of dosing were used: 200 mg/rat for 14 days (n=5) or 400 mg/rat for 7 days (n=7). At the end of these periods, rats were sacrificed. The thickness of a 1 cm^2 section of skin from the treated area was measured. The thymus was removed and weighed.

patient with necrobiosis = test: Topical treatment of a patient with necrobiosis; assay type: in vivo, human; conditions: LE as 0.5% cream of Example 2
From the text: Further confirmation has been found in a patient with necrobiosis.

hairless mice = test: Multi-week topical (photocarcinogenicity) study of loteprednol etabonate cream in hairless mice, with or without simulated sunlight; skinfold thickness; assay type: in vivo, mouse
Procedure: To investigate photocarcinogenicity, a multi-week study of loteprednol etabonate cream in hairless mice, with or without simulated sunlight, was undertaken. […] Because effects on skin atrophy were also recorded, however, and because a period of 4 weeks is the maximum recommended treatment period for eyelid dermatitis, results for the first 4 weeks of the study are given below. Mice were treated with the cream formulation once daily, five days per week. In the portion of the test summarized below, the cream contained LE in amounts of 0, 0.25% by weight and 0.5% by weight. (Higher concentrations were tested but results are not given here). Week 0 was baseline. After 4 weeks, skin thickness measurements were taken using a caliper. The cream also contained glycerin 99% USP, benzyl alcohol NF, purified water USP, carbomer 940 NF (Carbopol 980), glyceryl stearate/PEG 100 stearate, trolamine 99F, cetyl alcohol NF, stearyl alcohol NF, white petrolatum USP, light mineral oil NF and dimethicone (50 cst).

[2] = clinical trials, compared to prednisolone; cited from earlier work
[3] = anti-inflammatory activity; cited from earlier work
[4] = regimens of Table 2, listed as loteprednol etabonate
[5] = LE 0.1% + Δ^1-CA 0.1% suspension, 22.5° C.
[6] = LE 0.1% suspension, no Δ^1-CA, 22.5° C.
[7] = LE 0.2% + Δ^1-CA 0.2% suspension, 22.5° C.
[8] = LE 0.2% suspension, no Δ^1-CA, 22.5° C.

| PERCENT DECREASE IN SKIN THICKNESS (Sprague-Dawley rats; 200 mg/day - 14 d) | PERCENT DECREASE IN THYMUS WEIGHT (Sprague-Dawley rats; 200 mg/day - 14 d) | effect on thymus weight (in words) (Sprague-Dawley rats; regimens of Table 2) | PERCENT DECREASE IN SKIN THICKNESS (Sprague-Dawley rats; 400 mg/day - 7 d) | PERCENT DECREASE IN THYMUS WEIGHT (Sprague-Dawley rats; 400 mg/day - 7 d) | Compound | skin atrophy (in words) (Sprague-Dawley rats; regimens of Table 2) | effect on inflammation / necrobiosis (patient with necrobiosis) | skin atrophy (skin thinning) (patient with necrobiosis) | further results |
| --- | --- | --- | --- | --- | --- | --- | --- | --- | --- |
| – | – | – | – | – | CCOC(=O)OC1(C(=O)O)CC[C@H]2[C@@H]3CCC4=CC(=O)C=C[C@]4(C)[C@H]3C(O)C[C@@]21C (stereo partly shown) [AE] | – | – | – | stability of degradation product AE in the suspension ([1]; aqueous LE suspensions, 22.5° C.): stable |
| 12.8* PERCENT | 70.1** PERCENT | significant decreases in thymus weight | – | – | CCCCC(=O)O[C@]1(C(=O)CO)[C@@H](C)C[C@H]2[C@@H]3CCC4=CC(=O)C=C[C@]4(C)[C@@]3(F)[C@@H](O)C[C@@]21C [BMV, betamethasone 17-valerate] | caused skin atrophy | successful in lessening inflammation | thinned the skin | effect on thymus weight (in words) (Sprague-Dawley rats; regimens of Table 2, listed as Betamethasone valerate): most significant decreases in thymus weight |
| 17.9* PERCENT | 29.5* PERCENT | significant decreases in thymus weight | 12.8* PERCENT | 36.0** PERCENT | CCCC(=O)O[C@]1(C(=O)CO)CC[C@H]2[C@@H]3CCC4=CC(=O)CC[C@]4(C)[C@H]3[C@@H](O)C[C@@]21C [HCB, hydrocortisone 17-butyrate] | most marked; also recorded: caused skin atrophy | – | – | – |

| Compound | PERCENT DECREASE IN SKIN THICKNESS (Sprague-Dawley rats; 200 mg/day - 14 d) | PERCENT DECREASE IN THYMUS WEIGHT (Sprague-Dawley rats; 200 mg/day - 14 d) | effect on thymus weight (in words) (Sprague-Dawley rats; regimens of Table 2) | PERCENT DECREASE IN SKIN THICKNESS (Sprague-Dawley rats; 400 mg/day - 7 d) | PERCENT DECREASE IN THYMUS WEIGHT (Sprague-Dawley rats; 400 mg/day - 7 d) | skin atrophy (in words) (Sprague-Dawley rats; regimens of Table 2) | effect on inflammation / necrobiosis (patient with necrobiosis) | skin atrophy (skin thinning) (patient with necrobiosis) | further results |
| --- | --- | --- | --- | --- | --- | --- | --- | --- | --- |
| CCOC(=O)O[C@]1(C(=O)OCCl)CC[C@H]2[C@@H]3CCC4=CC(=O)C=C[C@]4(C)[C@H]3[C@@H](O)C[C@@]21C [LE, chloromethyl 17α-ethoxycarbonyloxy-11β-hydroxyandrosta-1,4-dien-3-one-17β-carboxylate] | 6.5% | 12.8% | minimal effects on skin atrophy and thymus weight | 10.3% | −2.5% | minimal effects on skin atrophy and thymus weight | effective in treating the necrobiosis by lessening inflammation | did not cause skin atrophy | skin atrophy (in words) (Sprague-Dawley rats; regimens of Table 2, listed as Loteprednol etabonate): did not cause a statistically significant decrease in skin thickness; effect on thymus weight (in words) (Sprague-Dawley rats; [4]): did not effect thymus weight significantly; skin atrophy (in words) (Sprague-Dawley rats; [4]): less skin atrophy; skin atrophy (in words) (hairless mice; 1.5% and 4.5% by weight of LE and/or study extended to week 8 and week 13): more skin atrophy was seen; effect on skin thickness (in words) (hairless mice; LE at 0.25% and 0.5%, application for four weeks): no or minimal deleterious effect on skin thickness; t95% [1, 5]: 3.66 year; k [1, 5]: 3.84 day^−1 × 10^−5; t95% [1, 6]: 2.10 year; k [1, 6]: 6.69 day^−1 × 10^−5; t95% [1, 7]: 6.12 year; k [1, 7]: 2.30 day^−1 × 10^−5; t95% [1, 8]: 3.21 year; k [1, 8]: 4.38 day^−1 × 10^−5; stabilization of LE by increase in concentration ([1]; concentration from 0.1% to 0.2%, in either LE-only or LE+Δ^1-CA suspension): more than 1.5 times; stabilization of LE by Δ^1-cortienic acid relative to LE in the absence of the enhancer (increase of half-life) ([1]; same concentration of Δ^1-CA added to LE suspension): between one and one-half and two times; also recorded: almost two times; cataracts [2]: did not elevate intraocular pressure or cause cataracts; elevation of intraocular pressure [2]: did not elevate intraocular pressure; activity relative to hydrocortisone (HC) [3]: approximately 20 times |
